The molecules below were run on Osteoblasts (Calvarial cells) (assay: not given). Details: ICR, mouse, 72 h, 1 μM.

With `CNc1ccc([N+](=O)[O-])c(Nc2ccc(C)cc2)n1` [Compound 1, 2-(4-methylphenylamino)-6-(methylamino)-3-nitropyridine] as the molecule, how does the “Cell viability (%) Calvarial cell” value read?
Its value is 106%.

How did the “Cell viability (%) Calvarial cell” value turn out when `Cc1ccc(Nc2nc(NC(C)C)ccc2[N+](=O)[O-])cc1` [Compound 2, 2-(4-methylphenylamino)-6-(isopropylamino)-3-nitropyridine] was run?
Its value is 104%.

How did the “Cell viability (%) Calvarial cell” value turn out when `Cc1ccc(Nc2nc(NCC(C)C)ccc2[N+](=O)[O-])cc1` [Compound 3, 2-(4-methylphenylamino)-6-(isobutylamino)-3-nitropyridine] was run?
The value was 102%.

How did the “Cell viability (%) Calvarial cell” value turn out when `Cc1ccc(Nc2nc(N3CCC(O)CC3)ccc2[N+](=O)[O-])cc1` [Compound 5, 2-(4-methylphenylamino)-6-(4-hydroxypiperidino)-3-nitropyridine] was run?
The value was 96%.

`Cc1ccc(Nc2nc(N3CCN(C)CC3)ccc2[N+](=O)[O-])cc1` [Compound 11, 2-(4-methylphenylamino)-6-(4-methylpiperazin-1-yl)-3-nitropyridine] was tested. Which “Cell viability (%) Calvarial cell” value did it give?
Its value is 103%.

For `CNc1ccc([N+](=O)[O-])c(Nc2ccc(OC)cc2)n1` [Compound 15, 2-(4-methoxyphenylamino)-6-(methylamino)-3-nitropyridine], which “Cell viability (%) Calvarial cell” value is on record?
The value was 100%.

For `COc1ccc(Nc2nc(NCC(C)C)ccc2[N+](=O)[O-])cc1` [Compound 17, 2-(4-methoxyphenylamino)-6-(isobutylamino)-3-nitropyridine], which “Cell viability (%) Calvarial cell” value is on record?
Its value is 96%.

With `COc1ccc(Nc2nc(N3CCC(O)CC3)ccc2[N+](=O)[O-])cc1` [Compound 19, 2-(4-methoxyphenylamino)-6-(4-hydroxypiperidino)-3-nitropyridine] as the molecule, how does the “Cell viability (%) Calvarial cell” value read?
Its value is 94%.

`COc1ccc(Nc2nc(NC(C)(C)C)ccc2[N+](=O)[O-])cc1` [Compound 23, 2-(4-methoxyphenylamino)-6-(t-butylamino)-3-nitropyridine] was tested. Which “Cell viability (%) Calvarial cell” value did it give?
Its value is 90%.

With `COc1ccc(Nc2nc(N3CCN(C)CC3)ccc2[N+](=O)[O-])cc1` [Compound 26, 2-(4-methoxyphenylamino)-6-(4-methylpiperazin-1-yl)-3-nitropyridine] as the molecule, how does the “Cell viability (%) Calvarial cell” value read?
The value was 90%.

Which “Cell viability (%) Calvarial cell” value does the source give for `COc1ccc(Nc2nc(N3CCNCC3)ccc2[N+](=O)[O-])cc1` [Compound 27, 2-(4-methoxyphenylamino)-6-(piperazin-1-yl)-3-nitropyridine] here?
Its value is 97%.

Which “Cell viability (%) Calvarial cell” value does the source give for `COc1ccc(Nc2nc(N3CCOCC3)ccc2[N+](=O)[O-])cc1` [Compound 29, 2-(4-methoxyphenylamino)-6-morpholino-3-nitropyridine] here?
The value was 93%.

For `CNc1ccc([N+](=O)[O-])c(Nc2ccc(C(C)(C)C)cc2)n1` [Compound 30, 2-[4-(t-butyl)phenylamino]-6-(methylamino)-3-nitropyridine], which “Cell viability (%) Calvarial cell” value is on record?
The value was 90%.

For `CC(C)CNc1ccc([N+](=O)[O-])c(Nc2ccc(C(C)(C)C)cc2)n1` [Compound 32, 2-[4-(t-butyl)phenylamino]-6-(isobutylamino)-3-nitropyridine], which “Cell viability (%) Calvarial cell” value is on record?
Its value is 91%.

How did the “Cell viability (%) Calvarial cell” value turn out when `CC(C)(C)c1ccc(Nc2nc(N3CCC(O)CC3)ccc2[N+](=O)[O-])cc1` [Compound 34, 2-[4-(t-butyl)phenylamino]-6-(4-hydroxypiperidino)-3-nitropyridine] was run?
Its value is 97%.

For `CC(C)c1nccn1-c1ccc([N+](=O)[O-])c(Nc2ccc(C(C)(C)C)cc2)n1` [Compound 36, 2-[4-(t-butyl)phenylamino]-6-[(2-isopropyl)imidazol-1-yl]-3-nitropyridine], which “Cell viability (%) Calvarial cell” value is on record?
The value was 118%.

For `CC(C)(C)c1ccc(Nc2nc(NCc3cccnc3)ccc2[N+](=O)[O-])cc1` [Compound 37, 2-[4-(t-butyl)phenylamino]-6-[(3-pyridyl)methylamino]-3-nitropyridine], which “Cell viability (%) Calvarial cell” value is on record?
The value was 104%.

For `CC(C)(C)c1ccc(Nc2nc(NCc3ccncc3)ccc2[N+](=O)[O-])cc1` [Compound 38, 2-[4-(t-butyl)phenylamino]-6-[(4-pyridyl)methylamino]-3-nitropyridine], which “Cell viability (%) Calvarial cell” value is on record?
Its value is 96%.

How did the “Cell viability (%) Calvarial cell” value turn out when `CN1CCN(c2ccc([N+](=O)[O-])c(Nc3ccc(C(C)(C)C)cc3)n2)CC1` [Compound 41, 2-[4-(t-butyl)phenylamino]-6-(4-methylpiperazin-1-yl)-3-nitropyridine] was run?
The value was 85%.

With `CC(C)(C)c1ccc(Nc2nc(N3CCOCC3)ccc2[N+](=O)[O-])cc1` [Compound 44, 2-[4-(t-butyl)phenylamino]-6-morpholino-3-nitropyridine] as the molecule, how does the “Cell viability (%) Calvarial cell” value read?
The value was 101%.

`CC(C)CNc1ccc([N+](=O)[O-])c(Nc2ccc(C#N)cc2)n1` [Compound 46, 2-(4-cyanophenylamino)-6-(isobutylamino)-3-nitropyridine] was tested. Which “Cell viability (%) Calvarial cell” value did it give?
Its value is 100%.

For `Nc1ccc(Nc2nc(N3CCC(O)CC3)ccc2[N+](=O)[O-])cc1` [Compound 61, 2-[4-(amino)phenylamino]-6-(4-hydroxypiperidino)-3-nitropyridine], which “Cell viability (%) Calvarial cell” value is on record?
The value was 102%.

With `Nc1ccc(Nc2nc(N3CCNCC3)ccc2[N+](=O)[O-])cc1` [Compound 62, 2-[4-(amino)phenylamino]-6-(piperazin-1-yl)-3-nitropyridine] as the molecule, how does the “Cell viability (%) Calvarial cell” value read?
The value was 103%.

`CN1CCN(c2ccc([N+](=O)[O-])c(Nc3ccc(N)cc3)n2)CC1` [Compound 63, 2-[4-(amino)phenylamino]-6-(4-methylpiperazin-1-yl)-3-nitropyridine] was tested. Which “Cell viability (%) Calvarial cell” value did it give?
Its value is 104%.

How did the “Cell viability (%) Calvarial cell” value turn out when `Nc1ccc(Nc2nc(N3CCC(N)CC3)ccc2[N+](=O)[O-])cc1` [Compound 65, 2-[4-(amino)phenylamino]-6-(4-aminopiperidino)-3-nitropyridine] was run?
The value was 102%.

For `Nc1ccc(Nc2nc(NCCCn3ccnc3)ccc2[N+](=O)[O-])cc1` [Compound 67, 2-[4-(amino)phenylamino]-6-[(3-imidazol-1-yl)propylamino]-3-nitropyridine], which “Cell viability (%) Calvarial cell” value is on record?
Its value is 111%.

`CNc1ccc([N+](=O)[O-])c(Nc2cccc(N)c2)n1` [Compound 70, 2-[3-(amino)phenylamino]-6-(methylamino)-3-nitropyridine] was tested. Which “Cell viability (%) Calvarial cell” value did it give?
The value was 105%.

How did the “Cell viability (%) Calvarial cell” value turn out when `CC(C)Nc1ccc([N+](=O)[O-])c(Nc2cccc(N)c2)n1` [Compound 71, 2-[3-(amino)phenylamino]-6-(isopropylamino)-3-nitropyridine] was run?
The value was 114%.

What follows are molecules tested on Osteoblasts (Calvarial cells) (assay: Cytotoxicity test (MTT)). Details: 1 μM compound, 72 hours, in comparison with vehicle control.
Method: For the preparation of osteoblasts (Calvarial cells), the calvaria were aseptically dissected from 1 to 2-day-old neonatal ICR mice and subjected to continuous reaction with a 0.2% collagenase solution to separate osteoblasts. The cell-suspended supernatant was centrifuged to recover osteoblasts which were grown to full confluence in an α-MEM supplemented with 10% FBS and then diluted to a desired cell density for use in the experiment.
Cytotoxicity of the compounds of the present invention was evaluated by carrying out the experiment described below.
The vehicle control group was established to contain 0.2% DMSO. 100 μL/well of the diluted drugs were dispensed into 96-well plates to which osteoblasts (calvarial cells) prepared in Experimental Example 1 were then added at a density of 1.0×10^4 cells/100 μL/well. Here, the final compound concentration in the cell culture was 1 μM, and the vehicle control group contained 0.1% DMSO. The cells were cultured in a 5% CO2 inhibitor at 37° for 72 hours. 25 μL of 3-(4,5-dimethyl-2-thiazolyl)-2,5-diphenyl-2H-tetrazolium bromide (MTT) dissolved in PBS (2 mg/mL) was added to each cell culture 4 hours before the end of culture. After completion of the reaction, the plates were centrifuged, the media were discarded, and 100 μL of formazan was added and dissolved in dimethyl sulfoxide (DMSO). Finally, the absorbance of the developed plates was measured at 540 nm. The cell viability was expressed as % concentration in comparison with the vehicle control group.

How did the “Cell viability (%) Calvarial cell” value turn out when `NC(=O)C1CCCN(c2ccc(Nc3nc(NCCN4CCOCC4)ccc3[N+](=O)[O-])cc2F)C1` (centres unmarked) [Compound 313, 2-{[3-fluoro-4-(3-carbamoylpiperidino)]phenylamino}-6-[2-(morpholin-1-yl)ethylamino]-3-nitropyridine] was run?
The value was 106%.

How did the “Cell viability (%) Calvarial cell” value turn out when `NC(=O)C1CCCN(c2ccc(Nc3nc(NCCCN4CCOCC4)ccc3[N+](=O)[O-])cc2F)C1` (centres unmarked) [Compound 314, 2-{[3-fluoro-4-(3-carbamoylpiperidino)]phenylamino}-6-[(3-morpholin-1-yl)propylamino]-3-nitropyridine] was run?
Its value is 103%.

For `CCN(CC)c1ccc([N+](=O)[O-])c(Nc2ccc(N3CCCC(C(N)=O)C3)c(F)c2)n1` (centres unmarked) [Compound 315, 2-{[3-fluoro-4-(3-carbamoylpiperidino)]phenylamino}-6-(diethylamino)-3-nitropyridine], which “Cell viability (%) Calvarial cell” value is on record?
Its value is 104%.

`CNc1ccc([N+](=O)[O-])c(Nc2ccc(N3CCC(C(=O)O)CC3)c(F)c2)n1` [Compound 316, 2-{[3-fluoro-4-(4-carboxylicpiperidino)]phenylamino}-6-(methylamino)-3-nitropyridine] was tested. Which “Cell viability (%) Calvarial cell” value did it give?
Its value is 95%.

With `CC(C)Nc1ccc([N+](=O)[O-])c(Nc2ccc(N3CCC(C(=O)O)CC3)c(F)c2)n1` [Compound 317, 2-{[3-fluoro-4-(4-carboxylicpiperidino)]phenylamino}-6-(isopropylamino)-3-nitropyridine] as the molecule, how does the “Cell viability (%) Calvarial cell” value read?
The value was 99%.

With `CC(C)CNc1ccc([N+](=O)[O-])c(Nc2ccc(N3CCC(C(=O)O)CC3)c(F)c2)n1` [Compound 318, 2-{[3-fluoro-4-(4-carboxylicpiperidino)]phenylamino}-6-(isobutylamino)-3-nitropyridine] as the molecule, how does the “Cell viability (%) Calvarial cell” value read?
The value was 103%.

For `O=C(O)C1CCN(c2ccc(Nc3nc(N4CCC(O)CC4)ccc3[N+](=O)[O-])cc2F)CC1` [Compound 319, 2-{[3-fluoro-4-(4-carboxylicpiperidino)]phenylamino}-6-(4-hydroxypiperidino)-3-nitropyridine], which “Cell viability (%) Calvarial cell” value is on record?
The value was 112%.

For `CN1CCN(c2ccc([N+](=O)[O-])c(Nc3ccc(N4CCC(C(=O)O)CC4)c(F)c3)n2)CC1` [Compound 320, 2-{[3-fluoro-4-(4-carboxylicpiperidino)]phenylamino}-6-(4-methylpiperazin-1-yl)-3-nitropyridine], which “Cell viability (%) Calvarial cell” value is on record?
Its value is 101%.

With `O=C(O)C1CCN(c2ccc(Nc3nc(NCc4cccnc4)ccc3[N+](=O)[O-])cc2F)CC1` [Compound 321, 2-{[3-fluoro-4-(4-carboxylicpiperidino)]phenylamino}-6-[(3-pyridyl)methylamino]-3-nitropyridine] as the molecule, how does the “Cell viability (%) Calvarial cell” value read?
The value was 101%.

With `O=C(O)C1CCN(c2ccc(Nc3nc(NCc4ccncc4)ccc3[N+](=O)[O-])cc2F)CC1` [Compound 322, 2-{[3-fluoro-4-(4-carboxylicpiperidino)]phenylamino}-6-[(4-pyridyl)methylamino]-3-nitropyridine] as the molecule, how does the “Cell viability (%) Calvarial cell” value read?
The value was 106%.

`O=C(O)C1CCN(c2ccc(Nc3nc(NCCCn4ccnc4)ccc3[N+](=O)[O-])cc2F)CC1` [Compound 323, 2-{[3-fluoro-4-(4-carboxylicpiperidino)]phenylamino}-6-[(3-imidazol-1-yl)propylamino]-3-nitropyridine] was tested. Which “Cell viability (%) Calvarial cell” value did it give?
The value was 105%.

Which “Cell viability (%) Calvarial cell” value does the source give for `O=C(O)C1CCN(c2ccc(Nc3nc(NCCN4CCOCC4)ccc3[N+](=O)[O-])cc2F)CC1` [Compound 324, 2-{[3-fluoro-4-(4-carboxylicpiperidino)]phenylamino}-6-[2-(morpholin-1-yl)ethylamino]-3-nitropyridine] here?
The value was 82%.

With `O=C(O)C1CCN(c2ccc(Nc3nc(NCCCN4CCOCC4)ccc3[N+](=O)[O-])cc2F)CC1` [Compound 325, 2-{[3-fluoro-4-(4-carboxylicpiperidino)]phenylamino}-6-[(3-morpholin-1-yl)propylamino]-3-nitropyridine] as the molecule, how does the “Cell viability (%) Calvarial cell” value read?
Its value is 106%.

From US20110306606A1, “NOVEL 2,6-SUBSTITUTED-3-NITROPYRIDINE DERIVATIVE, METHOD FOR PREPARING SAME, AND PHARMACEUTICAL COMPOSITION INCLUDING SAME” (priority 2008, published 2011)
